According to publication PMC2901518 (British Journal of Pharmacology, 2010):
Where a chain is given by its changes, count along the chain named. Like-named read-outs stand apart in the source and are kept apart here. Values belong to the compound of their own block, whether it stands above or below them.

How the values were obtained:
[1] = molecular target: T1, rat Y1 receptor (association with β-arrestin2) (Rattus norvegicus, UniProt P21555); type: cell-based
T1 sequence (P21555 2-382): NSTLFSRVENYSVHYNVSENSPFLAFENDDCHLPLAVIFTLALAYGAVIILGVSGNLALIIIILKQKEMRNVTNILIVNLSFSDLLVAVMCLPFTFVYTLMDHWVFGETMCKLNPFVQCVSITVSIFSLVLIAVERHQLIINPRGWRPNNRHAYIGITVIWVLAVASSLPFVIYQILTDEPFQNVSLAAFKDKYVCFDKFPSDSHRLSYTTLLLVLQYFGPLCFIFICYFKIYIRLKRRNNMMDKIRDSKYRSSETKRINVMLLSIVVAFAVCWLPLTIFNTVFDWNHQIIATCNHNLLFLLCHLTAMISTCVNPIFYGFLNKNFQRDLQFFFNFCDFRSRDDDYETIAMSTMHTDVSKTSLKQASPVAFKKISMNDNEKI

[2] = molecular target: Y1 receptor (Y1–YFP) (Rattus norvegicus, UniProt P21555); type: cell-based
Sequence of Y1 receptor (Y1–YFP) (P21555 whole entry): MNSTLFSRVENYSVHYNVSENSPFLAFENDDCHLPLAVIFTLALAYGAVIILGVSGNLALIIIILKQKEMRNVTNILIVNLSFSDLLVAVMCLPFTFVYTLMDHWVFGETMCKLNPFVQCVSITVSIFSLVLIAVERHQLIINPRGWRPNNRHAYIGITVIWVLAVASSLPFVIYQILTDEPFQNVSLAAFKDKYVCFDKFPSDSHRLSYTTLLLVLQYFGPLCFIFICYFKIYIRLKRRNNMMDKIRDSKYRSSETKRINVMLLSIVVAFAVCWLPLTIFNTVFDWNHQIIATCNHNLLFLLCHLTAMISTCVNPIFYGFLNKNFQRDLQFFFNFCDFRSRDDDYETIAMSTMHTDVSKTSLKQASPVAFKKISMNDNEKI

[3] = molecular target: T2, Y1 receptor T356A, S359A, TSA (Rattus norvegicus, UniProt P21555, S359A/S362A/T356A/T361A); assay: [125I]PYY competition binding, Y1 T356A, S359A, TSA/βarr2 membranes
T2 sequence (P21555 2-382 T356A/S359A/T361A/S362A): T1 sequence (P21555 2-382) with T355A, S358A, T360A, S361A

[4] = molecular target: T3, Y1 receptor 6A (Rattus norvegicus, UniProt P21555, S352A/S359A/S362A/T353A/T356A/T361A); assay: [125I]PYY competition binding, Y1 6A/βarr2 membranes
T3 sequence (P21555 1-382 S352A/T353A/T356A/S359A/T361A/S362A): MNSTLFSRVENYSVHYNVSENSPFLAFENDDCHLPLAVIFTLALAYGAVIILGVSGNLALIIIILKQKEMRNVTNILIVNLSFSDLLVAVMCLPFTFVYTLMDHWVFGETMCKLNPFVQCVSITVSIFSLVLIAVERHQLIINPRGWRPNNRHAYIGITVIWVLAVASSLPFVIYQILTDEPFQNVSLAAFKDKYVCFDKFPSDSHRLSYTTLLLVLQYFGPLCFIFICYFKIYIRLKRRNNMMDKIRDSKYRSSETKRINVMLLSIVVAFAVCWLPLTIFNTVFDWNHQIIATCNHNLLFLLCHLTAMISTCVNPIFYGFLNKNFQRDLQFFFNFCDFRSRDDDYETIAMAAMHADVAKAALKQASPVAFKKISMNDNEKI

[5] = molecular target: T4, Y1 receptor 5A (Rattus norvegicus, UniProt P21555, S352A/S359A/S362A/T353A/T361A); assay: [125I]PYY competition binding, Y1 5A/βarr2 membranes
T4 sequence (P21555 1-382 S352A/T353A/S359A/T361A/S362A): T3 sequence (P21555 1-382 S352A/T353A/T356A/S359A/T361A/S362A) with A356T

[6] = tested on: Y1 receptor ΔY346; type: binding, rat
[7] = molecular target: T5, Y2 receptor (Homo sapiens, UniProt P49146); type: binding
T5 sequence (P49146 1-381): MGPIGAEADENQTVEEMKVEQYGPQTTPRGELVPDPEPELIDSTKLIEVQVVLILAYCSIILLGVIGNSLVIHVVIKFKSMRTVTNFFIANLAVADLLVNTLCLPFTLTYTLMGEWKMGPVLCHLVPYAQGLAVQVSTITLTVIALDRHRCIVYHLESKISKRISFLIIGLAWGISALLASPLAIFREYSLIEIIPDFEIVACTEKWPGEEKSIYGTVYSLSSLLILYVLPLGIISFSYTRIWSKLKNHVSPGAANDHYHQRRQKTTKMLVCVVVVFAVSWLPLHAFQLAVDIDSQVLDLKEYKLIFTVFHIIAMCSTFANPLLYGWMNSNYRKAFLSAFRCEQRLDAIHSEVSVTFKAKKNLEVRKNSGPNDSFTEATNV

[8] = molecular target: T6, Y1 receptor S359A (Rattus norvegicus, UniProt P21555, S359A); assay: [125I]PYY competition binding, Y1 S359A/βarr2 membranes
T6 sequence (P21555 2-382 S359A): T1 sequence (P21555 2-382) with S358A

[9] = molecular target: T7, Y1 receptor STA, TSA (Rattus norvegicus, UniProt P21555, S352A/S362A/T353A/T361A); assay: [125I]PYY competition binding, Y1 STA, TSA/βarr2 membranes
T7 sequence (P21555 2-382 S352A/T353A/T361A/S362A): T1 sequence (P21555 2-382) with S351A, T352A, T360A, S361A

[10] = molecular target: T8, Y1 receptor T356A (Rattus norvegicus, UniProt P21555, T356A); assay: [125I]PYY competition binding, Y1 T356A/βarr2 membranes
T8 sequence (P21555 2-382 T356A): T1 sequence (P21555 2-382) with T355A

[11] = molecular target: T9, Y1 receptor TSA (T361A, S362A) (Rattus norvegicus, UniProt P21555, S362A/T361A); assay: [125I]PYY competition binding, Y1 TSA/βarr2 membranes
T9 sequence (P21555 2-382 T361A/S362A): T1 sequence (P21555 2-382) with T360A, S361A

[12] = molecular target: T10, Y1 receptor (Rattus norvegicus, UniProt P21555); assay: [125I]PYY competition binding, Y1/βarr2 membranes; conditions: inhibition of [125I]PYY specific binding
T10 sequence (P21555 2-382): T1 sequence (P21555 2-382)

[13] = molecular target: T11, Y1 receptor STA (S352A, T353A) (Rattus norvegicus, UniProt P21555, S352A/T353A); assay: [125I]PYY competition binding, Y1 STA/βarr2 membranes
T11 sequence (P21555 2-382 S352A/T353A): T1 sequence (P21555 2-382) with S351A, T352A

[14] = molecular target: T12, Y2 receptor H155P (Homo sapiens, UniProt P49146, H155P); type: binding
T12 sequence (P49146 1-381 H155P): T5 sequence (P49146 1-381) with H155P

[15] = 30 min pre-incubation, NPY 60 min
[16] = example triplicate experiment, Figure 6
[17] = inhibition of [125I]PYY specific binding

Schild slope, pooled [1, 15]: 1.5 ± 0.2
pA2 (Schild plot), pooled [1, 15]: 8.6 ± 0.2
agonist activity for stimulation of Y1/βarr2 BiFC ([1]; 1 h incubation): inactive
Schild slope, example experiment [1, 16]: 1.9
pA2 (Schild plot), example experiment [1, 16]: 8.3
agonist activity in Y1–YFP endocytosis assay [2]: inactive
Compound: homodimeric Ile-Glu-Pro-Dpr-Tyr-Arg-Leu-Arg-Tyr-CONH2 [GR231118]

Schild slope, example experiment [1]: 1.1
Schild slope, pooled [1]: 1.1 ± 0.1
effect of antagonist alone on Y1/βarr2 BiFC, % of 1 µM NPY response [1]: −4.5 ± 10.0%
Compound: N=C(N)NCCC[C@@H](NC(=O)C(c1ccccc1)c1ccccc1)C(=O)NCc1ccc(O)cc1 [BIBP3226, (R)-N2-(diphenylacetyl)-N-[(4-hydroxyphenyl)methyl]-argininamide]

GTPγS 1 µM inhibition (%), Y1 T356A, S359A, TSA ([3]; 1 µM GTPγS): 53.0 ± 7.4%
GTPγS pIC50, Y1 T356A, S359A, TSA [3, 17]: 9.21 ± 0.20
GTPγS 1 µM inhibition (%), Y1 6A ([4]; 1 µM GTPγS): 63.2 ± 1.2%
GTPγS pIC50, Y1 6A [4, 17]: 9.04 ± 0.02
GTPγS 1 µM inhibition (%), Y1 5A ([5]; 1 µM GTPγS): 55.7 ± 3.4%
GTPγS pIC50, Y1 5A [5, 17]: 8.81 ± 0.28
GTPγS 1 µM inhibition (%), Y1 ΔY346 ([6]; 1 µM GTPγS): 61.9 ± 8.8%
GTPγS pIC50, Y1 ΔY346 [6, 17]: 8.57 ± 0.04
GTPγS 1 µM inhibition (%), Y2 ([7]; 1 µM GTPγS): 73.8 ± 3.5%
GTPγS pIC50, Y2 [7, 17]: 9.19 ± 0.11
GTPγS 1 µM inhibition (%), Y1 S359A ([8]; 1 µM GTPγS): 54.7 ± 3.5%
GTPγS pIC50, Y1 S359A [8, 17]: 9.18 ± 0.08
GTPγS 1 µM inhibition (%), Y1 STA, TSA ([9]; 1 µM GTPγS): 58.2 ± 5.0%
GTPγS pIC50, Y1 STA, TSA [9, 17]: 9.03 ± 0.26
GTPγS 1 µM inhibition (%), Y1 T356A ([10]; 1 µM GTPγS): 48.3 ± 4.7%
GTPγS pIC50, Y1 T356A [10, 17]: 8.97 ± 0.17
GTPγS 1 µM inhibition (%), Y1 TSA ([11]; 1 µM GTPγS): 51.4 ± 4.9%
GTPγS pIC50, Y1 TSA [11, 17]: 9.40 ± 0.10
GTPγS 1 µM inhibition (%), Y1 ([12]; 1 µM GTPγS): 58.6 ± 4.1%
GTPγS pIC50, Y1 ([12]; 30 µg·mL−1 saponin): 9.05 ± 0.21
GTPγS 1 µM inhibition (%), Y1 STA ([13]; 1 µM GTPγS): 61.4 ± 4.0%
GTPγS pIC50, Y1 STA [13, 17]: 9.00 ± 0.15
GTPγS 1 µM inhibition (%), Y2 H155P ([14]; 1 µM GTPγS): 70.2 ± 5.3%
GTPγS pIC50, Y2 H155P [14, 17]: 9.17 ± 0.05
Compound: Nc1nc2c(ncn2[C@@H]2O[C@H](COP(=O)(O)OP(=O)(O)OP(O)(O)=S)[C@@H](O)[C@H]2O)c(=O)[nH]1 [GTPγS, guanosine-5′-O-(3-thio)triphosphate]
